{
  "source": "patent US20250288584A1",
  "about": "“COMBINATIONS COMPRISING POSITIVE ALLOSTERIC MODULATORS OR ORTHOSTERIC AGONISTS OF METABOTROPIC GLUTAMATERGIC RECEPTOR SUBTYPE 2 AND THEIR USE” (JANSSEN PHARMACEUTICA NV, priority 2014, published 2025)",
  "origin": "cited, not measured here",
  "test_system": "pentylenetetrazol seizures",
  "settings": "in vivo; cited from earlier work",
  "data": [
    {"smiles": "CC[C@@H](C(N)=O)N1CCCC1=O", "note": "[LEV, (S)-2-(2-oxopyrrolidin-1-yl) butanamide, reference compound]", "values": [
      {"measurement": "activity in pentylenetetrazol seizure test", "result": "no activity"}
    ]}
  ]
}
